Columns and labels:
[1] = pH upon addition of test substance to 0.1 M HCl solution (pH 1.2), pH meter; assay type: physicochemical
Description: The solution pH was determined using an MP-103 pH-meter (MRC, Israel) equipped with ELC-10-00 electrode (MRC, Israel) or with a thin electrode HI1083 (HANNA instruments Inc.), shortly after dissolution and up to 26 hours later in order to ensure that the pH remained stable. The highest pH value obtained during the experimental time period was recorded in order to compare the acid-neutralizing capacity of each substance.
SNAC and the basic polymers sodium alginate, sodium carboxymethylcellulose in non-crosslinked (Na-CMC) and crosslinked (croscarmellose sodium, CCS) forms, and sodium starch glycolate (SSG) were dissolved in various volumes of 0.1 M HCl solution (pH 1.2) at concentrations of 1, 2, 4, 10, 20, 50, 100 and 150 mg/ml, and the solution pH was determined using an MP-103 pH-meter (MRC, Israel) equipped with ELC-10-00 electrode (MRC, Israel), as described in the Materials and Methods section hereinabove.
In order to obtain a beneficial rise in pH with a reduced loss of the active form of the absorption enhancer, the effect of various concentrations of different polymers containing carboxylate groups (sodium alginate, sodium starch glycolate, sodium carboxymethylcellulose, and croscarmellose sodium) on pH upon addition to a 0.1 M HCl solution (pH 1.2) was also evaluated. FIG. 3A presents pH values determined using an MP-103 pH-meter (MRC, Israel) equipped with ELC-10-00 electrode (MRC, Israel) and FIG. 3B presents pH values determined using an MP-103 pH-meter (MRC, Israel) equipped with a thin electrode HI1083 (HANNA instruments Inc.).

[2] = test system: pepsin; assay: Proteolysis of hPTH(1-34) by pepsin at various pH values; assay type: in vitro ADME; conditions: 13.5 μg/ml hPTH(1-34), 150 μg/ml pepsin, 37° C., media pH 2-7
Description: The effect of pH on peptide proteolysis by pepsin was determined by incubating 13.5 μg/ml human parathyroid hormone (1-34) (hPTH(1-34)) with 150 μg/ml pepsin, at various pH values, and determining the percentage of hPTH(1-34) which remained. The amount of hPTH(1-34) remaining upon addition to 150 μg/ml pepsin at 37° C., was determined in media with different pH values, followed by immediate (10 second) vortex and centrifugation for 3 minutes at 4° C., 4000 RCF. The following media were used: simulated gastric fluid (pH 2), prepared from 0.01 M HCl and NaCl; phthalate buffer (pH 4 or 5); and phosphate buffer (pH 6 or 7).

| pH 5 minutes after dissolution ([1]; 10 mg/ml SNAC added to HCl solution (pH 1.2)) | pH 5 minutes after dissolution ([1]; 20 mg/ml SNAC added to HCl solution (pH 1.2)) | pH 5 minutes after dissolution ([1]; 100 mg/ml SNAC added to HCl solution (pH 1.2)) | dissolution upon addition to HCl solution ([1]; HCl solution (pH 1.2)) | pH at which proteolysis of hPTH(1-34) by pepsin was inhibited [2] | SMILES |
| --- | --- | --- | --- | --- | --- |
| about 1.5 | 6.5 | about 7.5 | dissolved rapidly | – | O=C(O)CCCCCCCNC(=O)c1ccccc1O [SNAC, sodium 8-N-(2-hydroxybenzoyl)aminocaprylate] |
| – | – | – | – | ≥ 6 | CC[C@H](C)[C@H](NC(=O)[C@H](CCC(=O)O)NC(=O)[C@H](CO)NC(=O)[C@@H](NC(=O)[C@@H](N)CO)C(C)C)C(=O)N[C@@H](CCC(N)=O)C(=O)N[C@@H](CC(C)C)C(=O)N[C@@H](CCSC)C(=O)N[C@@H](Cc1cnc[nH]1)C(=O)N[C@@H](CC(N)=O)C(=O)N[C@@H](CC(C)C)C(=O)NCC(=O)N[C@@H](CCCCN)C(=O)N[C@@H](Cc1cnc[nH]1)C(=O)N[C@@H](CC(C)C)C(=O)N[C@@H](CC(N)=O)C(=O)N[C@@H](CO)C(=O)N[C@@H](CCSC)C(=O)N[C@@H](CCC(=O)O)C(=O)N[C@@H](CCCN=C(N)N)C(=O)N[C@H](C(=O)N[C@@H](CCC(=O)O)C(=O)N[C@@H](Cc1c[nH]c2ccccc12)C(=O)N[C@@H](CC(C)C)C(=O)N[C@@H](CCCN=C(N)N)C(=O)N[C@@H](CCCCN)C(=O)N[C@@H](CCCCN)C(=O)N[C@@H](CC(C)C)C(=O)N[C@@H](CCC(N)=O)C(=O)N[C@@H](CC(=O)O)C(=O)N[C@H](C(=O)N[C@@H](Cc1cnc[nH]1)C(=O)N[C@@H](CC(N)=O)C(=O)N[C@@H](Cc1ccccc1)C(=O)O)C(C)C)C(C)C [hPTH(1-34), teriparatide] |

— patent US20260124281A1, “FORMULATIONS COMPRISING ACID-NEUTRALIZING POLYMER FOR ORAL ADMINISTRATION OF PARATHYROID HORMONE” (Entera Bio Ltd., priority 2022, published 2026)
